Data published in patent publication US20260256728A1, “TREATMENT FOR ASYMPTOMATIC STARGARDT DISEASE PATIENTS” (priority 2024, published 2026).
“Also recorded” adds a separate entry of the source.

Key:
[1] = tested on: asymptomatic Stargardt disease patients; test: TEASE-3 retinal sensitivity by fundus-tracking microperimetry; assay type: in vivo, human
Experimental: FIG. 4 is a graph showing mean retinal sensitivity (dB) over time in three asymptomatic Stargardt disease patients taking gildeuretinol acetate 14 mg daily. Lines show mean retinal sensitivity of both eyes. Lines are piecewise linear regressions with a knot time of 12 months. Each symbol represents a retinal sensitivity measurement for each eye. Patient 1 retinal sensitivity was measured with a Nidek MP-1 (Nidek, Gamagori, Japan). Patients 2 and 3 retinal sensitivity was measured with the Center Vue Macular Integrity Assessment or MAIA (CenterVue, Padova, Italy).
(§1) The tolerability and effects of ALK-001 (gildeuretinol acetate) in Stargardt Disease (Clinical trial group 3, also known as TEASE-3) study was an open-label, multicenter, case control study designed to evaluate the efficacy and safety of gildeuretinol acetate on the progression of Stargardt disease in asymptomatic individuals. The trial was conducted at multiple sites in the United States.
Patients received gildeuretinol acetate 14 mg capsules, to be taken orally once daily. […]
Disease progression was monitored by best-corrected visual acuity (BCVA) reported in number of Early Treatment Diabetic Retinopathy Study (ETDRS) letters, fundus autofluorescence (FAF) imaging, loss of photoreceptors (as measured by the ellipsoid zone band loss) by optical coherence tomography (OCT) and retinal sensitivity by microperimetry. […]

[2] = TEASE-3 safety; assay type: in vivo, human; details: three patients, 14 mg daily
Experimental: The tolerability and effects of ALK-001 (gildeuretinol acetate) in Stargardt Disease (Clinical trial group 3, also known as TEASE-3) study was an open-label, multicenter, case control study designed to evaluate the efficacy and safety of gildeuretinol acetate on the progression of Stargardt disease in asymptomatic individuals. The trial was conducted at multiple sites in the United States. Patients received gildeuretinol acetate 14 mg capsules, to be taken orally once daily. Trial visits occurred every 6 months approximately following screening and treatment start visits. Ocular safety was assessed by retinal imaging and ocular exam, which included evaluation of the anterior and posterior segments and the lens. Systemic safety was assessed by physical exam, comprehensive clinical labs (biochemistry, hematology, lipids), and 12-lead ECG.

[3] = in vivo
[4] = TEASE-1 plasma gildeuretinol (replacement of plasma vitamin A); assay type: in vivo, human; details: for percentage of gildeuretinol over total vitamin A (as retinol+gildeuretinol): plasma, 8-week pharmacokinetic analysis
Experimental: The Tolerability and Effects of gildeuretinol acetate in Stargardt Disease (Clinical trial group 1, also known as TEASE-1) was a 24-month, multicenter, double-masked, placebo-controlled trial designed to evaluate the efficacy and safety of daily oral gildeuretinol acetate in slowing the growth of atrophic retinal lesions in Stargardt disease patients. The trial was conducted at multiple sites in the United States (NCT02402660).
Patients 12 years or older, clinically diagnosed with Stargardt disease, with at least one ABCA4 mutation, at least one eye presenting with well-demarcated areas of reduced fundus autofluorescence including retinal atrophic lesions, and with any visual acuity, were enrolled.
Patients were randomized to gildeuretinol acetate 14 mg capsules, gildeuretinol acetate 24 mg capsules, or placebo capsules, to be taken once daily for one year. After one year, 50% of randomly selected patients receiving placebo were crossed over in a 1:1 ratio to gildeuretinol acetate 14 mg capsules or gildeuretinol acetate 24 mg capsules for a second year.
Gildeuretinol acetate and placebo capsules were identical appearing capsules. Patients were advised to avoid vitamin A-containing supplements and liver-based products. Fruits and vegetables could be consumed without limitation. Trial visits occurred at 8 weeks and 6, 12, 18, and 24 months following screening and randomization.

[5] = tested on: asymptomatic Stargardt disease patients; test: TEASE-3 best-corrected visual acuity (BCVA); assay type: in vivo, human
Experimental: as §1
(§2) To assess the safety and efficacy of gildeuretinol acetate in preventing vision loss in asymptomatic individuals, gildeuretinol acetate 14 mg capsules were administered to individuals showing early signs of retinal damage while maintaining approximately 20/20 vision and no subjective loss of vision. […] Based on the above family history and clinical observations, the asymptomatic individuals were likely to develop retinal lesions, loss of photoreceptors, drops in retinal sensitivity, loss of visual acuity, indicating the onset of symptoms, i.e. a progression to the symptomatic phase, including vision loss within two years, mirroring the progression observed in their older siblings.
Testing asymptomatic individuals in the absence of a potential intervention is, therefore, controversial. All asymptomatic Stargardt disease patients were thus administered gildeuretinol acetate. Specific dose levels were not disclosed to the patients. Disease progression was compared to the symptomatic siblings with identical genetic mutations when aged-matched who had not received gildeuretinol acetate.
(§3) Patients received gildeuretinol acetate 14 mg capsules, to be taken orally once daily. Trial visits occurred every 6 months approximately following screening and treatment start visits.
(§4) Disease progression was monitored by best-corrected visual acuity (BCVA) reported in number of Early Treatment Diabetic Retinopathy Study (ETDRS) letters, fundus autofluorescence (FAF) imaging, loss of photoreceptors (as measured by the ellipsoid zone band loss) by optical coherence tomography (OCT) and retinal sensitivity by microperimetry.
(§5) Measurements from the left and right eye for each patient were averaged for each visit to produce a single statistical unit for both eyes. For segmented linear regressions, knot times were selected so that three visits were included in the first segment.

[6] = TEASE-3 plasma gildeuretinol; assay type: in vivo, human; details: 14 mg daily
Experimental: as §1, §2, §3

[7] = tested on: asymptomatic Stargardt disease patients; test: TEASE-3 photoreceptor loss (ellipsoid zone band loss) by optical coherence tomography; assay type: in vivo, human
Experimental: FIG. 5 is a graph showing retinal photoreceptor loss over time in three asymptomatic Stargardt disease patients taking gildeuretinol acetate 14 mg daily. Lines are piecewise linear regressions with a knot time of 6 months and show the mean area of retinal photoreceptor loss of both eyes. Each symbol represents the area of photoreceptor loss for one eye. To measure photoreceptor loss, the ellipsoid zone layer was evaluated on b-scans acquired on Heidelberg engineering optical coherence tomography (Heidelberg, Germany).
as §1, §3, §4, §5

[8] = tested on: asymptomatic Stargardt disease patients; test: TEASE-3 fundus autofluorescence (FAF) imaging; assay type: in vivo, human; details: after two to four years of treatment, three patients
Experimental: as §1
To assess the safety and efficacy of gildeuretinol acetate in preventing vision loss in asymptomatic individuals, gildeuretinol acetate 14 mg capsules were administered to individuals showing early signs of retinal damage while maintaining approximately 20/20 vision and no subjective loss of vision. […]
as §4

SMILES: [2H]C([2H])([2H])C(/C=C/C=C(C)/C=C/C1=C(C)CCCC1(C)C)=C\COC(C)=O [gildeuretinol acetate]
- change of mean retinal sensitivity ([1]; first year of treatment): −3.1±1.5 dB/year
- average rate of retinal sensitivity improvement ([1]; following years of treatment): +0.93±0.7 dB/year
- adverse reactions linked to excessive or insufficient vitamin A (delays in dark adaptation, night blindness) [2]: None of the three Stargardt disease asymptomatic patients exhibited adverse reactions
- Patients experiencing event (%): Ear infection [3]: 1 (10.0)
- Patients experiencing event (%): Gastroenteritis viral [3]: 0
- Patients experiencing event (%): Herpes zoster [3]: 0
- Patients experiencing event (%): Skin infection [3]: 0
- Patients experiencing event (%): Upper respiratory tract infection [3]: 2 (20.0)
- changes in visual acuity [3]: No changes in visual acuity were observed
- discontinuation of treatment due to side effects [3]: no patient discontinued treatment due to side effects
- serious adverse events associated with treatment [3]: No serious adverse events
- severity of adverse events [3]: mild or moderate
- replacement of plasma vitamin A sustained throughout the treatment period ([4]; 14 or 24 mg daily, 24 months): greater than 80%
- patients in whom over 80% of plasma vitamin A was replaced ([4]; after six months): 39 out of 40
- serum vitamin A replaced with gildeuretinol ([4]; daily doses approximately 14 to 24 mg, within a matter of weeks): more than 80%
- total plasma vitamin A and retinoic acid (combined vitamin A and gildeuretinol-derived forms) versus placebo group ([4]; in vivo): the same
- percentage of gildeuretinol over total vitamin A (as retinol+gildeuretinol) ([4]; 14 mg cohort): 87%
- percentage of gildeuretinol over total vitamin A (as retinol+gildeuretinol) ([4]; 24 mg cohort): 92%
- effect on vision loss ([5]; asymptomatic Stargardt disease patients, 14 mg daily, up to four years): effectively prevented vision loss and further retinal damage; also recorded: completely prevented vision loss; also recorded: arrested loss of vision and retinal pathology
- average BCVA improvement versus untreated siblings, lines of vision on the ETDRS eyechart ([5]; in vivo): four
- visual acuity (Snellen) ([5]; treated asymptomatic patients): ~ 20/20 and approximately 20/20
- BCVA ([5]; treated siblings, 14 mg daily, 2-4 years): 88±4 ETDRS letters
- average BCVA improvement versus untreated age-matched siblings ([5]; untreated siblings 66±10 ETDRS letters): 22±13 letters
- replacement of plasma vitamin A sustained throughout the treatment period [6]: Over 80%
- replacement of plasma vitamin A (retinol) with gildeuretinol ([6]; after the first two months, all three participants): 80%
- progression of photoreceptor loss ([7]; first six months of treatment, average of two treated patients): approximately 0.18 mm^2/year
- photoreceptor loss trend ([7]; following years of treatment): trended toward an improvement
- photoreceptor loss, third patient ([7]; full treatment period): no photoreceptors were lost
- average area of photoreceptor loss ([7]; in vivo): 0.36±0.32 mm^2
- average area of photoreceptor loss as share of the foveal area ([7]; in vivo): 20%
- disease progression / changes by FAF imaging [8]: none of the three treated Stargardt disease patients exhibited changes by FAF; also recorded: no observable disease progression; also recorded: no visible disease progression by fundus autofluorescence imaging occurred
